Laboratory results reported in PubChem BioAssay (NCI).
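Exposure lasted 48 hours, with cells grown in 96-well plates and compounds tested at five concentrations. TGI is the concentration that stops growth completely.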

Key:
Assay in all cases: growth of human tumour cells (NCI), 48 h
SK-MEL-2 melanoma = test system: SK-MEL-2 melanoma
NCI-H226 lung = test system: NCI-H226 lung
MCF7 breast = test system: MCF7 breast
HCT-15 colon = test system: HCT-15 colon
LOX IMVI melanoma = test system: LOX IMVI melanoma
SW-620 colon = test system: SW-620 colon
OVCAR-3 ovarian = test system: OVCAR-3 ovarian
DU-145 prostate = test system: DU-145 prostate
HL-60(TB) leukemia = test system: HL-60(TB) leukemia
A549 NSCLC = test system: A549 NSCLC

Cc1ccc(S(=O)(=O)NC(=O)Nc2nnc(S(N)(=O)=O)s2)cc1
TGI (SK-MEL-2 melanoma): > 100 µM
TGI (NCI-H226 lung): > 100 µM
TGI (MCF7 breast): > 100 µM
TGI (HCT-15 colon): > 100 µM
TGI (LOX IMVI melanoma): > 100 µM
TGI (SW-620 colon): > 100 µM
TGI (OVCAR-3 ovarian): > 100 µM
TGI (DU-145 prostate): > 100 µM
TGI (HL-60(TB) leukemia): > 100 µM
TGI (A549 NSCLC): > 100 µM

CC(=O)O[C@H]1CC(C)(C)C(=C=C/C(C)=C/C=C/C=C/C=C(C)/C=C2C=C(/C=C/[C@@]34O[C@]3(C)C[C@@H](O)CC4(C)C)C(=O)O/2)[C@](C)(O)C1
TGI (SK-MEL-2 melanoma): 17.6 µM
TGI (NCI-H226 lung): 4.88 µM
TGI (MCF7 breast): 20.7 µM
TGI (HCT-15 colon): 35 µM
TGI (SW-620 colon): > 100 µM
TGI (OVCAR-3 ovarian): 23.2 µM
TGI (DU-145 prostate): > 100 µM
TGI (HL-60(TB) leukemia): 4.9 µM
TGI (A549 NSCLC): 50.2 µM

COC(=O)C1=C(O)C(C(=O)OC)C2CC(=O)CC1C2(C)C (centres undefined)
TGI (SK-MEL-2 melanoma): > 100 µM
TGI (NCI-H226 lung): > 100 µM
TGI (MCF7 breast): > 100 µM
TGI (HCT-15 colon): > 100 µM
TGI (SW-620 colon): > 100 µM
TGI (OVCAR-3 ovarian): > 100 µM
TGI (DU-145 prostate): > 100 µM
TGI (HL-60(TB) leukemia): > 100 µM
TGI (A549 NSCLC): > 100 µM

CCOC(=O)c1c(C)n(Cc2ccc(Cl)cc2Cl)c2c1cc(O)c1[nH]c3c(c12)CCCC3
TGI (SK-MEL-2 melanoma): 60.9 µM
TGI (NCI-H226 lung): 45.5 µM
TGI (MCF7 breast): 52 µM
TGI (HCT-15 colon): > 100 µM
TGI (LOX IMVI melanoma): > 100 µM
TGI (SW-620 colon): > 100 µM
TGI (OVCAR-3 ovarian): > 100 µM
TGI (DU-145 prostate): > 100 µM
TGI (HL-60(TB) leukemia): 2.79 µM
TGI (A549 NSCLC): > 100 µM

O=C(Nc1ccccc1F)c1cc2ccc(O)cc2oc1=Nc1cccc(F)c1
TGI (SK-MEL-2 melanoma): 62.6 µM
TGI (MCF7 breast): 95.1 µM
TGI (HCT-15 colon): 24.4 µM
TGI (LOX IMVI melanoma): 22.9 µM
TGI (SW-620 colon): 32.6 µM
TGI (OVCAR-3 ovarian): 33.1 µM
TGI (DU-145 prostate): 40.5 µM
TGI (HL-60(TB) leukemia): 27 µM
TGI (A549 NSCLC): 33.7 µM

Cn1nc2ccc([N+](=O)[O-])c(Cn3nnc4ccccc43)c2n1
TGI (SK-MEL-2 melanoma): > 100 µM
TGI (NCI-H226 lung): > 100 µM
TGI (MCF7 breast): > 100 µM
TGI (HCT-15 colon): > 100 µM
TGI (LOX IMVI melanoma): > 100 µM
TGI (SW-620 colon): > 100 µM
TGI (OVCAR-3 ovarian): > 100 µM
TGI (DU-145 prostate): > 100 µM
TGI (HL-60(TB) leukemia): > 100 µM
TGI (A549 NSCLC): > 100 µM

O=S1(=O)c2ccccc2Oc2ccc(C(/C=N/O)=N/O)cc21
TGI (SK-MEL-2 melanoma): 70.7 µM
TGI (NCI-H226 lung): > 100 µM
TGI (MCF7 breast): 92.5 µM
TGI (HCT-15 colon): > 100 µM
TGI (LOX IMVI melanoma): 41.5 µM
TGI (OVCAR-3 ovarian): 36.6 µM
TGI (DU-145 prostate): 53 µM
TGI (HL-60(TB) leukemia): 47.3 µM
TGI (A549 NSCLC): > 100 µM

N#Cc1c(-c2ccc(Cl)cc2)c2c(nn3c4ccc5ccccc5c4nnc23)[nH]c1=O
TGI (SK-MEL-2 melanoma): 5.77 µM
TGI (NCI-H226 lung): > 52.5 µM
TGI (MCF7 breast): 14.8 µM
TGI (HCT-15 colon): 6.35 µM
TGI (LOX IMVI melanoma): 4.18 µM
TGI (SW-620 colon): 11.4 µM
TGI (OVCAR-3 ovarian): 3.62 µM
TGI (DU-145 prostate): 4.61 µM
TGI (HL-60(TB) leukemia): > 100 µM
TGI (A549 NSCLC): 20.8 µM

COc1cc2c(c(O)c1O)C(=O)C1CCC(=O)N1C2c1cccc2ccccc12 (centres undefined)
TGI (SK-MEL-2 melanoma): > 50 µM
TGI (NCI-H226 lung): > 50 µM
TGI (MCF7 breast): > 50 µM
TGI (HCT-15 colon): > 50 µM
TGI (SW-620 colon): > 50 µM
TGI (OVCAR-3 ovarian): > 50 µM
TGI (DU-145 prostate): > 50 µM
TGI (HL-60(TB) leukemia): > 50 µM
TGI (A549 NSCLC): > 50 µM

COc1ccc(N2C(=O)C3c4[nH]c5ccc(OCc6ccccc6)cc5c4C4CCC(c5ccccc5)CC4C3C2=O)cc1 (centres undefined)
TGI (SK-MEL-2 melanoma): 68 µM
TGI (NCI-H226 lung): > 83.8 µM
TGI (MCF7 breast): > 75 µM
TGI (HCT-15 colon): > 84 µM
TGI (LOX IMVI melanoma): > 100 µM
TGI (SW-620 colon): 4.61 µM
TGI (OVCAR-3 ovarian): > 89 µM
TGI (DU-145 prostate): > 100 µM
TGI (HL-60(TB) leukemia): 33.3 µM
TGI (A549 NSCLC): > 39 µM

Cc1ccc2nc(SCC(=O)N=Nc3c(O)[nH]c4ccccc34)n(-c3ccccc3)c(=O)c2c1
TGI (SK-MEL-2 melanoma): 13.2 µM
TGI (NCI-H226 lung): 35.2 µM
TGI (MCF7 breast): 29.6 µM
TGI (HCT-15 colon): 40.5 µM
TGI (LOX IMVI melanoma): 29.8 µM
TGI (SW-620 colon): 61.4 µM
TGI (OVCAR-3 ovarian): 41.9 µM
TGI (DU-145 prostate): 26.2 µM
TGI (HL-60(TB) leukemia): 62.2 µM
TGI (A549 NSCLC): 28.6 µM

CC(C)/C(Cl)=N/OC(=O)Nc1ccc(Br)cc1
TGI (SK-MEL-2 melanoma): 31.5 µM
TGI (NCI-H226 lung): 30.5 µM
TGI (MCF7 breast): 24.9 µM
TGI (HCT-15 colon): 5.34 µM
TGI (LOX IMVI melanoma): 2.85 µM
TGI (SW-620 colon): 4.6 µM
TGI (OVCAR-3 ovarian): 9.5 µM
TGI (DU-145 prostate): 27.4 µM
TGI (HL-60(TB) leukemia): 7.62 µM
TGI (A549 NSCLC): 39.5 µM

O=C(O)CN(CC(=O)O)C1CCCCC1N1CC(=O)OC(=O)C1 (centres undefined)
TGI (SK-MEL-2 melanoma): > 100 µM
TGI (NCI-H226 lung): > 100 µM
TGI (MCF7 breast): > 100 µM
TGI (HCT-15 colon): > 100 µM
TGI (LOX IMVI melanoma): > 100 µM
TGI (SW-620 colon): > 100 µM
TGI (OVCAR-3 ovarian): > 100 µM
TGI (DU-145 prostate): > 100 µM
TGI (HL-60(TB) leukemia): > 100 µM
TGI (A549 NSCLC): > 100 µM

O=c1[nH]c(Nc2ccccc2)nc2c1ncn2CC(O)CSCCO (centres undefined)
TGI (SK-MEL-2 melanoma): > 100 µM
TGI (NCI-H226 lung): > 100 µM
TGI (MCF7 breast): > 100 µM
TGI (HCT-15 colon): > 100 µM
TGI (LOX IMVI melanoma): > 100 µM
TGI (SW-620 colon): > 100 µM
TGI (OVCAR-3 ovarian): > 100 µM
TGI (DU-145 prostate): > 100 µM
TGI (HL-60(TB) leukemia): > 100 µM
TGI (A549 NSCLC): > 100 µM

COc1cc(/C=C2\C(=O)N(c3cccc([N+](=O)[O-])c3)C(c3ccccc3)S2(=O)=O)cc(OC)c1OC (centres undefined)
TGI (SK-MEL-2 melanoma): > 100 µM
TGI (NCI-H226 lung): > 100 µM
TGI (MCF7 breast): > 100 µM
TGI (HCT-15 colon): > 100 µM
TGI (LOX IMVI melanoma): > 100 µM
TGI (SW-620 colon): > 100 µM
TGI (OVCAR-3 ovarian): > 100 µM
TGI (DU-145 prostate): > 100 µM
TGI (HL-60(TB) leukemia): > 100 µM
TGI (A549 NSCLC): > 100 µM

OC1[C@@H]2[C@@H](O)CCCN2C[C@@H](O)[C@H]1O (some centres undefined)
TGI (SK-MEL-2 melanoma): > 100 µM
TGI (NCI-H226 lung): > 100 µM
TGI (MCF7 breast): > 100 µM
TGI (HCT-15 colon): > 100 µM
TGI (LOX IMVI melanoma): > 100 µM
TGI (SW-620 colon): > 100 µM
TGI (OVCAR-3 ovarian): > 100 µM
TGI (DU-145 prostate): > 100 µM
TGI (HL-60(TB) leukemia): > 100 µM
TGI (A549 NSCLC): > 100 µM

COC(=O)[C@H]1C=NN[C@@H]1C(=O)N1[C@H]2CC3CC[C@@]2(CS1(=O)=O)C3(C)C
TGI (SK-MEL-2 melanoma): > 100 µM
TGI (NCI-H226 lung): > 100 µM
TGI (MCF7 breast): > 100 µM
TGI (HCT-15 colon): > 100 µM
TGI (LOX IMVI melanoma): > 100 µM
TGI (SW-620 colon): > 100 µM
TGI (DU-145 prostate): > 100 µM
TGI (HL-60(TB) leukemia): > 100 µM
TGI (A549 NSCLC): > 100 µM

COc1cccc(N2C(=O)CSC2c2cccc(Oc3ccccc3)c2)c1 (centres undefined)
TGI (SK-MEL-2 melanoma): 16.3 µM
TGI (NCI-H226 lung): 69.1 µM
TGI (MCF7 breast): 7.13 µM
TGI (HCT-15 colon): 76.9 µM
TGI (LOX IMVI melanoma): 27.2 µM
TGI (SW-620 colon): > 100 µM
TGI (OVCAR-3 ovarian): 92.9 µM
TGI (DU-145 prostate): > 100 µM
TGI (HL-60(TB) leukemia): 66.5 µM
TGI (A549 NSCLC): > 100 µM

CC(C)=CCN1c2ccccc2NC(=O)CC1C (centres undefined)
TGI (SK-MEL-2 melanoma): > 100 µM
TGI (NCI-H226 lung): > 100 µM
TGI (MCF7 breast): > 100 µM
TGI (HCT-15 colon): > 100 µM
TGI (LOX IMVI melanoma): > 100 µM
TGI (SW-620 colon): > 100 µM
TGI (OVCAR-3 ovarian): > 100 µM
TGI (DU-145 prostate): > 100 µM
TGI (HL-60(TB) leukemia): > 100 µM
TGI (A549 NSCLC): > 100 µM

Cn1c(=O)c2c(nc3n(CC(O)CCl)c(=O)ccn23)n(C)c1=O (centres undefined)
TGI (SK-MEL-2 melanoma): > 100 µM
TGI (NCI-H226 lung): > 100 µM
TGI (MCF7 breast): > 100 µM
TGI (HCT-15 colon): > 100 µM
TGI (LOX IMVI melanoma): > 100 µM
TGI (SW-620 colon): > 100 µM
TGI (OVCAR-3 ovarian): > 100 µM
TGI (DU-145 prostate): > 100 µM
TGI (HL-60(TB) leukemia): > 100 µM
TGI (A549 NSCLC): > 100 µM
